Laboratory results as given in patent US11927585B2, “Solvent-based inks and coatings for food contact applications” (SUN CHEMICAL CORPORATION, priority 2020, dated 2024).
Where a name gives a salt, the structure may show the parent alone. Read-outs that look alike come from different tables or passages of the source.

Columns and labels:
[1] = cited from earlier work
[2] = Worst-case calculation (100% migration), standard EU Cube exposure model; details: for Worst Case Calculation of migration in EU Cube model (as a percentage of SML) / Worst-case calculation as a percentage of SML (or restriction), EU Cube: 100% migration; for Worst Case Calculation of migration in EU Cube model (as a percentage of SML): dry coat weight 2.0 g/m^2; for Worst Case Calculation of migration in EU Cube model: Basis for Safety outcome: volatile substance; for Worst-case calculation as a percentage of SML (or restriction), EU Cube: 2.0 g/m^2 dry film
[3] = Worst-case calculation, Application 2 cheese packaging wrap exposure scenario; details: 100% migration, 2.0 g/m^2 dry film
[4] = Specific migration limit (SML) from regulation or hazard assessment (TTC, VEGA QSAR, Cramer Class); details: source HA (internal hazard assessment), self-derived SML; EU Cube model
[5] = Worst-case calculation, Application 1 yoghurt pot lid exposure scenario; details: 100% migration, 2.0 g/m^2 dry film
[6] = Source of SML or restriction: SO (Swiss Ordinance)
[7] = source of SML or restriction: SO (Swiss Ordinance)
[8] = substance in ink SBDEV980 (Ex. 4B Red)
[9] = substance in ink SBDEV976 (Ex. 4C Cyan)
[10] = substance in ink SBDEV977 (Ex. 4A Yellow)
[11] = substance in ink SBDEV979 (Ex. 4D Black)

Row | SMILES | Worst Case Calculation of migration in EU Cube model (as a percentage of SML) [2, 8] | Worst-case calculation as a percentage of SML (or restriction), Application 2 ([3]; product SBDEV977) | Worst-case calculation as a percentage of SML (or restriction), Application 2 ([3]; product SBDEV980) | Worst-case calculation as a percentage of SML (or restriction), Application 2 ([3]; product SBDEV1285) | Worst-case calculation as a percentage of SML (or restriction), Application 2 ([3]; product SBDEV1287) | SML or Restriction (mg substance/kg food) [4] [mg substance/kg food] | Worst-case calculation as a percentage of SML (or restriction), Application 1 ([5]; product SBDEV977) | Worst-case calculation as a percentage of SML (or restriction), Application 1 ([5]; product SBDEV980) | Worst-case calculation as a percentage of SML (or restriction), Application 1 ([5]; product SBDEV1285) | Worst-case calculation as a percentage of SML (or restriction), Application 1 ([5]; product SBDEV1287) | Worst-case calculation as a percentage of SML (or restriction), EU Cube ([2]; product SBDEV977) | Worst-case calculation as a percentage of SML (or restriction), EU Cube ([2]; product SBDEV980) | Worst-case calculation as a percentage of SML (or restriction), EU Cube ([2]; product SBDEV1285) | Worst-case calculation as a percentage of SML (or restriction), EU Cube ([2]; product SBDEV1287) | Worst Case Calculation of migration in EU Cube model (as a percentage of SML) [2, 10] | also measured
1 | CCCOC(C)=O [Acetic acid, propyl ester] |  |  |  |  |  |  |  |  |  |  |  |  |  |  |  | SML (or restriction) [1, 6]: 60 mg substance/kg food; SML (or restriction) [1, 7]: 60 mg substance/kg food
2 | O=C(O)c1c(-c2ccc(-c3ccccc3)cc2)[nH]c2nc(-c3ccc(-c4ccccc4)cc3)nc(-c3ccc(-c4ccccc4)cc3)c12 [2,4,6-Tris-Biphenyl-4-Yl-7H-Pyrrolo[2,3-D]Pyrimidine-5-Carboxylic Acid] | 380 percentage of SML |  |  |  |  |  |  |  |  |  |  |  |  |  |  | SML (or restriction) ([1]; Source of SML or restriction: Default 10 ppb): 0.01 mg substance/kg food; SML or Restriction (mg substance/kg food) ([1]; source Default 10 ppb): 0.01 mg substance/kg food
3 | CCCCOC(=O)CC(O)(CC(=O)OCCCC)C(=O)OCCCC [Tributyl citrate] |  |  |  |  |  |  |  |  |  |  |  |  |  |  |  | SML (or restriction) [1, 6]: 0.05 mg substance/kg food; SML (or restriction) [1, 7]: 0.05 mg substance/kg food
4 | CCO [ethanol] |  |  |  |  |  |  |  |  |  |  |  |  |  |  |  | SML (or restriction) ([1]; Source of SML or restriction: PR (EU Plastics Regulation No. 10/2011)): 60 mg substance/kg food; SML (or restriction) ([1]; source of SML or restriction: PR (EU Plastics Regulation No. 10/2011)): 60 mg substance/kg food
5 | CCCOC(C)=O [0000109-60-4, Acetic acid, propyl ester] |  |  |  |  |  |  |  |  |  |  |  |  |  |  |  | Worst Case Calculation of migration in EU Cube model: Basis for Safety outcome [2, 9]: Converter; Worst Case Calculation of migration in EU Cube model: Basis for Safety outcome [2, 10]: Converter; Worst Case Calculation of migration in EU Cube model: Basis for Safety outcome [2, 11]: Converter; Worst Case Calculation of migration in EU Cube model: Basis for Safety outcome [2, 8]: Converter; SML or Restriction (mg substance/kg food) ([1]; source PR (EU Plastics Regulation No. 10/2011) or SO (Swiss Ordinance), EU Cube model): 60 mg substance/kg food
6 | CCCCCCCC/C=C\CCCCCCCC(=O)N(CCO)CCO [0000093-83-4, N,N-Bis(2-hydroxyethyl) oleamide] |  | 99.4 percentage of SML (or restriction) |  |  | 97.9 percentage of SML (or restriction) | 0.09 | 27.1 percentage of SML (or restriction) |  |  | 26.7 percentage of SML (or restriction) | 69 percentage of SML (or restriction) |  |  | 68 percentage of SML (or restriction) | 69 percentage of SML | 
7 | O=Cc1ccc(Cl)cc1 [0000104-88-1, 4-Chlorobenzaldehyde] | 14 percentage of SML |  | 20.2 percentage of SML (or restriction) | 20.2 percentage of SML (or restriction) |  | 0.09 |  | 5.5 percentage of SML (or restriction) | 5.5 percentage of SML (or restriction) |  |  | 14 percentage of SML (or restriction) | 14 percentage of SML (or restriction) |  |  | 

The next lines start with results.

Row | Worst Case Calculation of migration in EU Cube model (as a percentage of SML) [2, 8] | Worst-case calculation as a percentage of SML (or restriction), Application 2 ([3]; product SBDEV977) | Worst-case calculation as a percentage of SML (or restriction), Application 2 ([3]; product SBDEV980) | Worst-case calculation as a percentage of SML (or restriction), Application 2 ([3]; product SBDEV1285) | Worst-case calculation as a percentage of SML (or restriction), Application 2 ([3]; product SBDEV1287) | SML or Restriction (mg substance/kg food) [4] [mg substance/kg food] | Worst-case calculation as a percentage of SML (or restriction), Application 1 ([5]; product SBDEV977) | Worst-case calculation as a percentage of SML (or restriction), Application 1 ([5]; product SBDEV980) | Worst-case calculation as a percentage of SML (or restriction), Application 1 ([5]; product SBDEV1285) | Worst-case calculation as a percentage of SML (or restriction), Application 1 ([5]; product SBDEV1287) | Worst-case calculation as a percentage of SML (or restriction), EU Cube ([2]; product SBDEV977) | Worst-case calculation as a percentage of SML (or restriction), EU Cube ([2]; product SBDEV980) | Worst-case calculation as a percentage of SML (or restriction), EU Cube ([2]; product SBDEV1285) | Worst-case calculation as a percentage of SML (or restriction), EU Cube ([2]; product SBDEV1287) | Worst Case Calculation of migration in EU Cube model (as a percentage of SML) [2, 10] | SMILES | also measured
8 | 16 percentage of SML | 21.6 percentage of SML (or restriction) | 23.0 percentage of SML (or restriction) | 17.3 percentage of SML (or restriction) | 15.8 percentage of SML (or restriction) | 4.98 | 5.9 percentage of SML (or restriction) | 6.3 percentage of SML (or restriction) | 4.7 percentage of SML (or restriction) | 4.3 percentage of SML (or restriction) | 15 percentage of SML (or restriction) | 16 percentage of SML (or restriction) | 12 percentage of SML (or restriction) | 11 percentage of SML (or restriction) | 15 percentage of SML | O=C1NCCN1 [0000120-93-4, 2-Imidazolidinone] | Worst-case calculation as a percentage of SML (or restriction), Application 2 ([3]; product SBDEV976): 23.0 percentage of SML (or restriction); Worst-case calculation as a percentage of SML (or restriction), Application 2 ([3]; product SBDEV979): 21.6 percentage of SML (or restriction); Worst-case calculation as a percentage of SML (or restriction), Application 2 ([3]; product SBDEV1284): 15.8 percentage of SML (or restriction); Worst-case calculation as a percentage of SML (or restriction), Application 2 ([3]; product SBDEV1286): 17.3 percentage of SML (or restriction); Worst-case calculation as a percentage of SML (or restriction), Application 1 ([5]; product SBDEV976): 6.3 percentage of SML (or restriction); Worst-case calculation as a percentage of SML (or restriction), Application 1 ([5]; product SBDEV979): 5.9 percentage of SML (or restriction); Worst-case calculation as a percentage of SML (or restriction), Application 1 ([5]; product SBDEV1284): 4.3 percentage of SML (or restriction); Worst-case calculation as a percentage of SML (or restriction), Application 1 ([5]; product SBDEV1286): 4.7 percentage of SML (or restriction); Worst-case calculation as a percentage of SML (or restriction), EU Cube ([2]; product SBDEV976): 16 percentage of SML (or restriction); Worst-case calculation as a percentage of SML (or restriction), EU Cube ([2]; product SBDEV979): 15 percentage of SML (or restriction); Worst-case calculation as a percentage of SML (or restriction), EU Cube ([2]; product SBDEV1284): 11 percentage of SML (or restriction); Worst-case calculation as a percentage of SML (or restriction), EU Cube ([2]; product SBDEV1286): 12 percentage of SML (or restriction); Worst Case Calculation of migration in EU Cube model (as a percentage of SML) [2, 9]: 16 percentage of SML; Worst Case Calculation of migration in EU Cube model (as a percentage of SML) [2, 11]: 15 percentage of SML
9 | 24.0 percentage of SML | 34.6 percentage of SML (or restriction) | 34.5 percentage of SML (or restriction) | 32.68 percentage of SML (or restriction) | 32.68 percentage of SML (or restriction) | 0.09 | 9.42 percentage of SML (or restriction) | 9.45 percentage of SML (or restriction) | 8.91 percentage of SML (or restriction) | 8.91 percentage of SML (or restriction) | 24.0 percentage of SML (or restriction) | 24.0 percentage of SML (or restriction) | 22.7 percentage of SML (or restriction) | 22.7 percentage of SML (or restriction) | 24 percentage of SML | CCCCCCCC/C=C\CCCCCCCC(=O)OCC [0000111-62-6, Ethyl Oleate] | Worst-case calculation as a percentage of SML (or restriction), Application 2 ([3]; product SBDEV976): 34.6 percentage of SML (or restriction); Worst-case calculation as a percentage of SML (or restriction), Application 2 ([3]; product SBDEV979): 32.7 percentage of SML (or restriction); Worst-case calculation as a percentage of SML (or restriction), Application 2 ([3]; product SBDEV1284): 32.68 percentage of SML (or restriction); Worst-case calculation as a percentage of SML (or restriction), Application 2 ([3]; product SBDEV1286): 32.68 percentage of SML (or restriction); Worst-case calculation as a percentage of SML (or restriction), Application 1 ([5]; product SBDEV976): 9.42 percentage of SML (or restriction); Worst-case calculation as a percentage of SML (or restriction), Application 1 ([5]; product SBDEV979): 8.92 percentage of SML (or restriction); Worst-case calculation as a percentage of SML (or restriction), Application 1 ([5]; product SBDEV1284): 8.91 percentage of SML (or restriction); Worst-case calculation as a percentage of SML (or restriction), Application 1 ([5]; product SBDEV1286): 8.91 percentage of SML (or restriction); Worst-case calculation as a percentage of SML (or restriction), EU Cube ([2]; product SBDEV976): 24.0 percentage of SML (or restriction); Worst-case calculation as a percentage of SML (or restriction), EU Cube ([2]; product SBDEV979): 22.7 percentage of SML (or restriction); Worst-case calculation as a percentage of SML (or restriction), EU Cube ([2]; product SBDEV1284): 22.7 percentage of SML (or restriction); Worst-case calculation as a percentage of SML (or restriction), EU Cube ([2]; product SBDEV1286): 22.7 percentage of SML (or restriction); Worst Case Calculation of migration in EU Cube model (as a percentage of SML) [2, 9]: 24.0 percentage of SML; Worst Case Calculation of migration in EU Cube model (as a percentage of SML) [2, 11]: 22.2 percentage of SML
10 | 5 percentage of SML |  | 7.2 percentage of SML (or restriction) | 7.2 percentage of SML (or restriction) |  | 0.09 |  | 2.0 percentage of SML (or restriction) | 2.0 percentage of SML (or restriction) |  |  | 5 percentage of SML (or restriction) | 5 percentage of SML (or restriction) |  |  | N#Cc1ccc(-c2ccccc2)cc1 [0002920-38-9, 4-Phenylbenzonitrile] | 
